The subject of one test is RAMOS. The test can be described thus: RAMOS_V2_IC50. The format is cell-based. The note with it: Homo sapiens.
A further test deals with human whole blood. The test can be described thus: IC50: human whole blood. The format is cell-based.
Test [1] has as its target T1, recombinant human SYK360-635 (Homo sapiens, UniProt P43405).
T1 construct: truncated construct of Spleen Tyrosine Kinase aa 360-635; made in house
The test can be described thus: SYK kinase assay, 33P ATP filtration (ENZYME_FILTRATION_IC50). The conditions noted are these: SYK aa 360-635 0.5 nM, ATP 20 μM, peptide 5 μM, 30° C. 15 min. The format is biochemical. As for the experimental part: Determination of IC50 of Spleen Tyrosine Kinase (SYK) Inhibition:
SYK kinase assay is a standard kinase assay adapted to a 96 well plate format. This assay is performed in 96-well format for IC50 determination with […] which represented 10 half log dilutions and a 40 μL reaction volume. The assay measures the incorporation of radiolabeled ^33P ATP into an N-terminally biotinylated peptide substrate, derived from naturally occurring phosphoacceptor consensus sequence (Biotin-11aa DY*E). Phosphorylated products were detected upon termination of reactions with EDTA and the addition of Streptavidin coated beads. Representative results are in Table II above.
Assay plates: 96-well MultiScreen 0.65 um filter plates (Millipore Cat. No.: MADVNOB10) Streptavidin coated beads: Streptavidin Sepharose™, suspension 5.0 mL, in 50 mM EDTA/PBS diluted (1:100), (Amersham, Cat. No.: 17-5113-01)
Compounds: 10 mM in 100% dimethylsulfoxide (DMSO), final conc.: compound 0.003-100 uM in 10% DMSO
Enzyme: SYK RPA purified, truncated construct of Spleen Tyrosine Kinase aa 360-635, stock solution 1 mg/mL, MW: 31.2 KDa, final conc.:0.0005 μM.
Peptide 1: biotinylated peptide is derived from a naturally occurring phosphor-acceptor consensus sequence (Biotin-EPEGDYEEVLE), special order from QCB, stock solution 20 mM, final conc.: 5.0 μM.
ATP: Adenosine-5′-triphosphate 20 mM, (ROCHE Cat. No.: 93202720), final concentration: 20 μM
Buffer: HEPES: 2-Hydroxyethyl piperazine-2-ethanesulfonic acid (Sigma, Cat. No.: H-3375) final concentration: 50 mM HEPES pH7.5
BSA: Bovine Serum Albumin Fraction V, fatty acid free (Roche Diagnostics GmbH, Cat. No. 9100221) diluted to a final concentration of 0.1%
EDTA: EDTA stock solution 500 mM, (GIBCO, Cat. No.: 15575-038) final concentration: 0.1 mM
DTT: 1,4-Dithiothreitol (Roche Diagnostics GmbH, Cat. No.: 197777), final conc.: 1 mM MgCl2×6H2O: MERCK, Cat. No.: 105833.1000, final concentration: 10 mM
Assay Dilution Buffer (ADB): 50 mM HEPES, 0.1 mM EGTA, 0.1 mM Na Vanadate, 0.1 mM β-glycerophosphate, 10 mM MgCl2, 1 mM DTT, 0.1% BSA, pH 7.5
Bead wash buffer: 10 g/L PBS (Phosphate buffered saline) with 2M NaCl+1% phosphoric acid.
In 40 μL volume, 26 μL of ADB diluted, purified recombinant human SYK360-635 [0.5 nM] was mixed with 4 μL of 10× concentrations of the test compounds, [usually 100 μM-0.003 μM] in [10%] DMSO and the mixture was incubated for 10 min at RT.
The kinase reaction was initiated by the addition of 10 μL 4× substrate cocktail containing the DYE peptide substrate [0 or 5 μM], ATP [20 μM] and ^33PγATP [2 μCi/rxn]. After incubation at 30° C. for 15 min, the reaction was terminated by the transfer of 25 μL pf the reaction sample to a 96 well 0.65 μm Millipore MADVNOB membrane/plate containing 200 μL 5 mM EDTA and 20% Streptavidine coated beads in PBS.
The unbound radionucleotides were washed under vacuum with 3×250 μL 2M NaCl; 2×250 μL 2M NaCl+1% phosphoric acid; 1×250 μL H2O. After the last wash membrane/plates were transferred to an adaptor plate, heat dried for 15 min at 60° C., and 50 μL scintillation cocktail was added to each well and 4 h later the amount of radioactivity was counted in a top counter.
The percent inhibition was calculated based on the uninhibited enzyme rate: % Inhibition=100/(1+(IC50/Inhibitor conc)^n)
The IC50 was calculated using a non-linear curve fit with XLfit software (ID Business Solution Ltd., Guilford, Surrey, UK).

The structures appear in SMILES notation.

As for `O=C(NC1CCOCC1)c1c[nH]nc1-c1nc2ccccc2[nH]1` [Compound I-38, 3-(1H-Benzoimidazol-2-yl)-1H-pyrazole-4-carboxylic acid (tetrahydro-pyran-4-yl)-amide], the IC50 (in general, the concentration that gives 50% inhibition) came out at 0.483 µM in the test on RAMOS and 0.87 µM in the test with human whole blood.

Regarding `O=C(NC1CCOCC1)c1c[nH]nc1-c1nc(-c2ccccc2)cs1` [Compound I-21, 3-(4-phenylthiazol-2-yl)-N-(tetrahydro-2H-pyran-4-yl)-1H-pyrazole-4-carboxamide], the IC50 in test [1] was 0.209 µM; in the test with RAMOS it was 19.1 µM; with human whole blood, greater than 50 µM.

For the molecule `CC(C)(CO)NC(=O)c1c[nH]nc1-c1nc2ccccc2[nH]1` [Compound I-39, 3-(1H-Benzoimidazol-2-yl)-1H-pyrazole-4-carboxylic acid (2-hydroxy-1,1-dimethyl-ethyl)-amide], the IC50 worked out at 0.986 µM in the test on RAMOS and 2.87 µM in the test with human whole blood.

In the test on human whole blood, `CN1CCC(NC(=O)c2c[nH]nc2-c2nc3c(s2)CCCC3)CC1` [Compound I-24, N-(1-methylpiperidin-4-yl)-3-(4,5,6,7-tetrahydrobenzo[d]thiazol-2-yl)-1H-pyrazole-4-carboxamide] yielded an IC50 greater than 50 µM.

As to `CC(C)(C)NC(=O)c1c[nH]nc1-c1nc2c(s1)CCCC2` [Compound I-19, N-tert-butyl-3-(4,5,6,7-tetrahydrobenzo[d]thiazol-2-yl)-1H-pyrazole-4-carboxamide], the IC50 with RAMOS was greater than 34.1 µM; in the test on human whole blood it was greater than 50 µM.

For `CCC(C)(C)Nc1scnc1-c1nc2cc(C)ccc2[nH]1` [Compound I-42, 4-(5-methyl-1H-benzo[d]imidazol-2-yl)-N-tert-pentylthiazol-5-amine], the IC50 in test [1] was 1.62 µM; with human whole blood, greater than 50 µM.

On to `CC(C)(C)NC(=O)c1c[nH]nc1-c1nc2ccccc2[nH]1` [Compound I-37, 3-(1H-Benzoimidazol-2-yl)-1H-pyrazole-4-carboxylic acid tert-butylamide], for which the IC50 was found to be 0.14 µM with RAMOS and 2.86 µM with human whole blood.

On to `Cc1ccc2sc(-c3n[nH]cc3C(=O)NC(C)(C)CO)cc2c1` [Compound I-9, N-(1-hydroxy-2-methylpropan-2-yl)-3-(5-methylbenzo[b]thiophen-2-yl)-1H-pyrazole-4-carboxamide], for which the IC50 in test [1] is greater than 10 µM; in the test on human whole blood, greater than 50 µM.

Consider `O=C(NC1CCCC1)c1c[nH]nc1-c1nc(-c2ccccc2)cs1` [Compound I-20, N-cyclopentyl-3-(4-phenylthiazol-2-yl)-1H-pyrazole-4-carboxamide], for which the results for the IC50 (in test [1]; in the test with human whole blood) were 0.215 µM and greater than 50 µM, respectively.

With `Cc1ccc2sc(-c3n[nH]cc3C(=O)NC(C)(C)C)cc2c1` [Compound I-10, N-tert-butyl-3-(5-methylbenzo[b]thiophen-2-yl)-1H-pyrazole-4-carboxamide], the IC50 in test [1] was greater than 10 µM; with human whole blood, greater than 50 µM.

Consider `CC(C)NC(=O)c1c[nH]nc1-c1nc2ccccc2[nH]1` [Compound I-36, 3-(1H-Benzoimidazol-2-yl)-1H-pyrazole-4-carboxylic acid isopropylamide], for which the IC50 in the test with RAMOS is 0.292 µM; in the test on human whole blood, 2.54 µM.

For `CCOC(=O)c1c[nH]nc1-c1nc2c(s1)CCC2` [Compound I-15, ethyl 3-(5,6-dihydro-4H-cyclopenta[d]thiazol-2-yl)-1H-pyrazole-4-carboxylate], the results for the IC50 (in test [1]; in the test with RAMOS) were greater than 10 µM and greater than 34.1 µM, respectively.

In the case of `CCOC(=O)c1c[nH]nc1-c1nc2c(s1)CCCC2` [Compound I-14, ethyl 3-(4,5,6,7-tetrahydrobenzo[d]thiazol-2-yl)-1H-pyrazole-4-carboxylate], the IC50 in test [1] is greater than 10 µM; in the test on RAMOS, greater than 34.1 µM.

Take `CCOC(=O)c1c[nH]nc1-c1nc2ccccn2n1` [Compound I-2, 3-[1,2,4]Triazolo[1,5-a]pyridin-2-yl-1H-pyrazole-4-carboxylic acid ethyl ester]: the figures for the IC50 (in test [1]; with RAMOS) were 0.113 µM and greater than 34.1 µM, respectively.

The values above are taken from patent publication US9988378B2, “1 H-pyrazole and 4,5-disubstituted thiazole inhibitors of SYK” (Hoffmann-La Roche Inc., priority 2012, dated 2018).
